{
  "source": "paper PMC10846744",
  "about": "“Cathelicidin peptide analogues inhibit EV71 infection through blocking viral entry and uncoating” (PLOS Pathogens, 2024)",
  "key": {"RD cells": {"tested_on": "RD cells", "assay": "Cytotoxicity of peptides on RD cells (Cell Titer-Glo)", "format": "cell-based, human", "conditions": "cell viability plotted against peptide concentration, Cell Titer-Glo (S1A-S1D Fig)", "procedure": "To test whether Cathelicidin peptide (LL-37) and its analogues could inhibit enterovirus infection, we conducted viral infection inhibition test on RD cells, which are one of the most commonly used cells for enterovirus propagation. We first assessed the cytotoxicity of LL-37, LL-18, FF-18, and a short form of LL-37 (DL-37) (Fig 1A), and all the peptides tested have a CC50 over 50 μM (S1A–S1D Fig). We then chose lower concentrations to test their antiviral activity. […] In addition, EV71 infection could cause cytopathic effect (CPE) on RD cells, and peptide could rescue EV71-induced cell death as assayed by crystal violet staining (Fig 1E) or cellular ATP content measurement (Fig 1F).\n(§1) Cell viability assays were carried out using the Cell Titer-Glo Luminescent Cell Viability Assay Kit (Promega, Madison, WI) following the manufacturer’s instructions. Luminescence signals were measured using a BioTek Neo2 microplate reader.\n(A-D) Cell viability of RD cells treated with the indicated amount of DL-37 (A), LL-37 (B), LL-18 (C), or FF-18 (D) was plotted against peptide concentration, and the cytotoxicity was determined. (E) EV71 virus pre-incubated with indicated amounts of DL-37, and the cell viability was determined 24 h.p.i. ***, P<0.001. (F-G) CVB5 (F) or Echo7 (G) virus pre-incubated with 0.3, 0.9, or 1.5 μM of peptides were used to infect RD cells. Cell viability was determined 24 h.p.i. ***, P<0.001. (H-I) CVB5 (H) or Echo7 (I) virus pre-incubated with 3, 6, or 12 μM of peptides were used to infect RD cells. Cell viability was determined 24 h.p.i. ***, P<0.001. (TIF) Click here for additional data file."}, "EV71 virus [1]": {"tested_on": "EV71 virus", "assay": "EV71 infection inhibition on RD cells (VP1 immunoblot, viral titer, cell viability/CPE)", "format": "cell-based, enterovirus 71 (EV71)", "conditions": "RD cells; for inhibition of EV71 infection at 0.3, 0.9, or 1.5 μM / inhibition of EV71 infection at higher concentration: cell viability or viral titer 24 h.p.i; for inhibition of EV71 infection at 0.3, 0.9, or 1.5 μM: 0.3, 0.9, or 1.5 μM peptide; for inhibition of EV71 infection at higher concentration: much higher concentration than 1.5 μM", "procedure": "Synthetic peptides were purchased from Bioyears Co. Ltd. (Wuhan, China) with purity of more than 95% and dissolved in PBS. To test their inhibitory effects, the EV71 virus (MOI = 1) was incubated with the indicated amount of peptide at room temperature for 1 hr before the mixture was added to RD cells and maintained throughout the experiment. Cell viability, viral titer, or viral protein expression was determined 24 h.p.i. For the time-of-addition experiment, viruses were either pre-incubated with peptides (for the -2 and -1 time points), the mixture was added to the cells simultaneously (for 0 time point), or peptides were added after virus infection (for 1, 2, 4 and 7 h time points) and the virus/peptide was maintained in the culture before cell viability, viral titer, or viral protein expression was determined 24 h.p.i. The TCID50 of the virus was calculated according to the Reed-Muench method.\nCells were treated as described and harvested with LDS sample buffer (Thermo Fisher Scientific). After denaturation, samples were separated on 10% SDS-PAGE gel and then transferred to a polyvinylidene fluoride (PVDF) membrane. The proteins were blocked using 5% skimmed milk and probed with the corresponding antibodies. The following antibodies were used in this study: EV71 VP1 polyclonal antibody (GeneTex, Taiwan, China), β-Actin antibody (Zen BioScience, Chengdu, China), pan-Enterovirus Monoclonal antibody (Thermo Fisher Scientific). The chemiluminescence signals were visualized using ECL Advance reagents (Mishubio, China), and the images were acquired using the FUSION Solo S Imaging System (VILBER, France).\nas §1\nFor crystal violet staining, cells treated as indicated were first washed once with PBS, followed by fixation with 4% PFA. Cells were then stained with 0.5% crystal violet for 2 hrs before they were extensively washed with water."}, "EV71 virus [2]": {"tested_on": "EV71 virus", "assay": "1H NMR titration of peptide with EV71 virus", "format": "binding, enterovirus 71 (EV71)", "conditions": "molar ratio peptide to virus 90:1, 800 MHz, 298k", "procedure": "(§2) The NMR titrations were performed on a Bruker 800 MHz (Avance NEO) spectrometer equipped with cryo-probe. The molar ratio of the peptide to the virus was 90:1. The experiments were recorded using zgespg pulse for 128 scans at 298k and the results were analyzed by Topspin."}, "CVB5 virus": {"tested_on": "CVB5 virus", "assay": "1H NMR titration of peptide with CVB5 virus", "format": "binding, coxsackievirus B5", "conditions": "molar ratio peptide to virus 90:1, 800 MHz, 298k", "procedure": "as §2"}, "EV71 virions": {"tested_on": "EV71 virions", "assay": "Viral particle stability thermal release assay (PaSTRY)", "design": "species or system enterovirus 71 (EV71)", "conditions": "EV71 MOI = 10 pre-incubated with LL-18 or NaCl, SYBR green II, heated 25°C to 80°C; PBS control around 45°C", "procedure": "Fig 6 LL-18 stabilizes the viral particles by inhibiting uncoating. (A) EV71 virus (MOI = 10) was pre-incubated with PBS, indicated amount of LL-18 or NaCl for 1 hr and then mixed with SYBR green dyes II before they were heated to indicated temperatures. The fluorescent signals were measured and plotted against temperature. PBS was used as a negative control. (B) EV71 virus (MOI = 10) was pre-incubated with PBS, LL-18, or 12s for 2 hrs. Half of the samples were then treated with 1.5 μg SCARB2 protein and incubated at 37°C for 2 hrs at pH 5.5. Samples were then subjected to ultracentrifugation as detailed in materials and methods. The numbers above represent the fractions collected from top to bottom.\nEV71 viruses were preincubated with either PBS, NaCl or the indicated amount of LL-18 at room temperature for 2 hrs, before Sybr green II dye (3× working concentration, Solarbio, China) and RNase inhibitor (1 U/μL, Thermo Scientific) were added. The mixture was heated from 25°C to 80°C with an increment of 0.5°C for 30 seconds, and the fluorescence from SYBR green was monitored with a QuantGene 9600 real-time PCR system (Bioer, China)."}},
  "data": [
    {"compound": "CC[C@H](C)[C@H](NC(=O)[C@H](CCCCN)NC(=O)[C@H](CCC(=O)O)NC(=O)[C@H](CCCCN)NC(=O)[C@H](CO)NC(=O)[C@H](CCCCN)NC(=O)[C@H](CCCNC(=N)N)NC(=O)[C@@H](N)Cc1ccccc1)C(=O)NCC(=O)N[C@@H](CCCCN)C(=O)N[C@@H](CCC(=O)O)C(=O)N[C@@H](Cc1ccccc1)C(=O)N[C@@H](CCCCN)C(=O)N[C@@H](CCCNC(=N)N)C(=O)N[C@H](C(=O)N[C@H](C(=O)N[C@@H](CCC(N)=O)C(=O)N[C@@H](CCCNC(=N)N)C(=O)N[C@H](C(=O)N[C@@H](CCCCN)C(=O)N[C@@H](CC(=O)O)C(=O)N[C@@H](Cc1ccccc1)C(=O)N[C@@H](CC(C)C)C(=O)N[C@@H](CCCNC(=N)N)C(=O)N[C@@H](CC(N)=O)C(=O)N[C@@H](CC(C)C)C(=O)N[C@H](C(=O)O)C(C)C)[C@@H](C)CC)C(C)C)[C@@H](C)CC", "note": "(racemic) [DL-37]", "values": [
      {"measurement": "CC50", "setting": "RD cells", "value": "over 50 μM"},
      {"measurement": "inhibition of EV71 infection at 0.3, 0.9, or 1.5 μM", "setting": "EV71 virus [1]", "value": "could not inhibit EV71 infection"},
      {"measurement": "inhibition of EV71 infection at higher concentration", "setting": "EV71 virus [1]", "value": "only showed inhibition at a much higher concentration"},
      {"measurement": "inhibition of EV71 infection (overall conclusion)", "setting": "EV71 virus [1]; VP1 expression, viral titer, crystal violet and Cell Titer Glo 24 h.p.i", "value": "little antiviral activity"}
    ]},
    {"compound": "CC[C@H](C)[C@H](NC(=O)[C@H](CCCCN)NC(=O)[C@H](CCC(=O)O)NC(=O)[C@H](CCCCN)NC(=O)[C@H](CO)NC(=O)[C@H](CCCCN)NC(=O)[C@H](CCCNC(=N)N)NC(=O)[C@H](Cc1ccccc1)NC(=O)[C@H](Cc1ccccc1)NC(=O)[C@H](CC(=O)O)NC(=O)CNC(=O)[C@H](CC(C)C)NC(=O)[C@@H](N)CC(C)C)C(=O)NCC(=O)N[C@@H](CCCCN)C(=O)N[C@@H](CCC(=O)O)C(=O)N[C@@H](Cc1ccccc1)C(=O)N[C@@H](CCCCN)C(=O)N[C@@H](CCCNC(=N)N)C(=O)N[C@H](C(=O)N[C@H](C(=O)N[C@@H](CCC(N)=O)C(=O)N[C@@H](CCCNC(=N)N)C(=O)N[C@H](C(=O)N[C@@H](CCCCN)C(=O)N[C@@H](CC(=O)O)C(=O)N[C@@H](Cc1ccccc1)C(=O)N[C@@H](CC(C)C)C(=O)N[C@@H](CCCNC(=N)N)C(=O)N[C@@H](CC(N)=O)C(=O)N[C@@H](CC(C)C)C(=O)N[C@H](C(=O)N1CCC[C@H]1C(=O)N[C@@H](CCCNC(=N)N)C(=O)N[C@H](C(=O)N[C@@H](CCC(=O)O)C(=O)N[C@@H](CO)C(=O)O)[C@@H](C)O)C(C)C)[C@@H](C)CC)C(C)C)[C@@H](C)CC", "note": "[LL-37, reference compound]", "values": [
      {"measurement": "CC50", "setting": "RD cells", "value": "over 50 μM"},
      {"measurement": "inhibition of EV71 infection at 0.3, 0.9, or 1.5 μM", "setting": "EV71 virus [1]", "value": "could not inhibit EV71 infection"},
      {"measurement": "inhibition of EV71 infection at higher concentration", "setting": "EV71 virus [1]", "value": "only showed inhibition at a much higher concentration"},
      {"measurement": "interaction of peptide with EV71 virus by 1H 1D NMR (amide region)", "setting": "EV71 virus [2]", "value": "no interaction between the peptide and viruses"},
      {"measurement": "interaction of peptide with CVB5 virus by 1H 1D NMR (amide region)", "setting": "CVB5 virus", "value": "no interaction between the peptide and viruses"}
    ]},
    {"compound": "[Cl-].[Na+]", "note": "[NaCl, reference compound]", "values": [
      {"measurement": "temperature of peak SYBR green fluorescence intensity (RNA release)", "setting": "EV71 virions", "value": 55, "unit": "°C"}
    ]}
  ]
}
